Laboratory results taken from PubChem BioAssay (NCI).
Several values for one entry are separate records, joined by “and”; a condition that tells them apart may be missing. Equal entries are not always repeated.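 Compound exposure: 48 hours, 5 concentrations, 96-well plates. Here, GI50 denotes the concentration required for 50% inhibition of growth. TGI: concentration producing complete growth inhibition.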

How the values were obtained:
Experiment in all cases: inhibition of tumour cell growth, NCI panel, 48 h
786-0 renal = tested on: 786-0 renal
A498 renal = tested on: A498 renal
CCRF-CEM leukemia = tested on: CCRF-CEM leukemia
DU-145 prostate = tested on: DU-145 prostate
EKVX NSCLC = tested on: EKVX NSCLC
MCF7 breast = tested on: MCF7 breast
MDA-MB-231 breast = tested on: MDA-MB-231 breast
MDA-MB-435 = tested on: MDA-MB-435
MDA-N = tested on: MDA-N
NCI/ADR-RES ovarian = tested on: NCI/ADR-RES ovarian
OVCAR-4 ovarian = tested on: OVCAR-4 ovarian
SF-268 CNS = tested on: SF-268 CNS
SK-MEL-28 melanoma = tested on: SK-MEL-28 melanoma
SW-620 colon = tested on: SW-620 colon

SMILES	TGI (786-0 renal)	TGI (A498 renal)	TGI (CCRF-CEM leukemia) [µM]	TGI (DU-145 prostate)	TGI (EKVX NSCLC)	TGI (MCF7 breast)	TGI (MDA-MB-231 breast)	TGI (MDA-MB-435)	TGI (MDA-N)	TGI (NCI/ADR-RES ovarian)	TGI (OVCAR-4 ovarian)	TGI (SF-268 CNS)	TGI (SK-MEL-28 melanoma)	TGI (SW-620 colon)	GI50 (MCF7 breast) [µM]	GI50 (MDA-N) [µM]	GI50 (SF-268 CNS) [µM]	GI50 (SK-MEL-28 melanoma)	GI50 (SW-620 colon) [µM]
CCCCCCOc1ccc(C(=O)NO)cc1	16.6 µM	28.1 µM	5.27	18.2 µM	52.7 µM	> 100 µM	21.9 µM	38.5 µM	34.1 µM	18.5 µM	> 66.3 µM	28.7 µM	43.9 µM	35.8 µM					
CCN1C(=O)C(C)S/C1=N\NC(=O)CSc1nc2ccccc2c(=O)n1CC (configuration not stated)	> 100 µM	> 100 µM	> 100	> 100 µM	> 100 µM	> 100 µM	> 100 µM	> 100 µM	> 100 µM	> 100 µM	> 100 µM	> 100 µM	> 100 µM	> 100 µM					
Cc1ccc(N=Nc2ccc(O)c(CN(C)C)c2)cc1	54.7 µM	40.2 µM	63	47.3 µM	51.9 µM	73.9 µM	56.3 µM	32.3 µM	30.6 µM	53.7 µM	53.5 µM	91.7 µM	41.1 µM	70.1 µM					
C=CCSC1=N/C(=C\c2cccs2)C(=O)N1CC=C	> 100 µM	95.3 µM		> 100 µM	71.4 µM	> 100 µM	> 100 µM	> 100 µM	> 100 µM	> 100 µM	> 100 µM	> 100 µM	> 100 µM	> 100 µM					
CC(=O)Nc1cc2c3c(c1)CCCN3CCC2	> 100 µM	> 100 µM	> 100	> 100 µM	> 100 µM	> 100 µM	> 100 µM	> 100 µM	> 100 µM	> 100 µM	> 100 µM		> 100 µM	> 100 µM					
O=C(c1ccccc1)c1ccc(-n2c3ccccc3c3ccc4c(c32)C(=O)C=CC4=O)cc1	5.77 µM	25.3 µM		> 40.1 µM	26.3 µM	10 µM	26.2 µM	20.5 µM	40.6 µM	60.5 µM	31.8 µM	26.3 µM	30.1 µM	30.1 µM					
CCOC(=O)CSc1nnc2cc(CN3CCCC3)c(-c3ccc(Cl)cc3)nn12	> 100 µM	> 100 µM	> 100	> 100 µM	> 100 µM	> 100 µM	> 100 µM	> 100 µM	> 100 µM	> 100 µM	> 100 µM	> 100 µM	> 100 µM	> 100 µM					
CN(C)S(=O)(=O)/N=C/c1cccc(/C=N/S(=O)(=O)N(C)C)c1	> 100 µM	> 100 µM	> 100	> 100 µM	> 100 µM	> 100 µM	> 100 µM	> 100 µM	> 100 µM	> 100 µM	> 100 µM	> 100 µM	> 100 µM	> 100 µM					
CCOC(=O)[C@@]12C[C@](/C=C/OC)(O[Si](C)(C)C)[C@@]13c1cc(OC)c(OC)cc1CCN3C(=O)C2O (some centres not stated)	> 100 µM	> 100 µM	> 100	> 100 µM	> 100 µM	> 100 µM	> 100 µM	> 100 µM	> 100 µM	> 100 µM	> 100 µM	> 100 µM	> 100 µM	> 100 µM					
O=P1(Oc2ccccc2)N(CCCl)CCN1c1ccccc1 (configuration not stated)	> 100 µM	> 100 µM	> 100	> 100 µM	> 100 µM	> 100 µM	> 100 µM	> 100 µM	> 100 µM	> 100 µM	> 100 µM	> 100 µM	> 100 µM	> 100 µM					
COc1ccc2[nH]cc([C@@H]3C4CCC(C4)[C@H]3NCc3cccc(CN[C@H]4C5CCC(C5)[C@@H]4c4c[nH]c5ccc(OC)cc45)c3)c2c1	1.9 µM and 2 µM	3.22 µM and 3.25 µM	1.08	3.31 µM and 3.08 µM	2.91 µM and 2.89 µM	2.25 µM and 2.86 µM	2.42 µM and 2.98 µM	0.988 µM and 0.962 µM	2.04 µM and 2.2 µM	3.04 µM and 2.98 µM	2.77 µM and 2.75 µM	2.52 µM and 2.93 µM	3.05 µM and 3.07 µM	0.333 µM and 0.627 µM	0.805	0.776	1.23	1.67 µM and 1.68 µM	0.177
C=C[C@@H]1C[C@]2(C(=O)OC)Cc3nc4ccccc4nc3CC(C(=O)OC)=C2O1	> 100 µM	> 100 µM	> 100	> 100 µM	> 100 µM	> 100 µM	> 100 µM	> 100 µM	> 100 µM	> 100 µM	> 100 µM	> 100 µM	> 100 µM	> 100 µM					
COc1cc2cccc(N)c2cc1OC	> 100 µM	> 100 µM	> 100	> 100 µM	> 100 µM	> 100 µM	> 100 µM	> 100 µM	> 100 µM	> 100 µM	> 100 µM	> 100 µM	> 100 µM	> 100 µM					
CCCCC(Sc1cc(Cl)c(C)cc1S(=O)(=O)Nc1n[nH]c(N)n1)C(=O)OC (configuration not stated)	> 10 µM	> 10 µM	> 10	> 10 µM	> 10 µM	> 10 µM	> 10 µM	> 10 µM	> 10 µM	> 10 µM	> 10 µM	> 10 µM	> 10 µM	> 10 µM					
CC(NC(=O)C(N)CC(=O)O)NC(=O)C1CCC1 (configuration not stated)	> 100 µM	> 100 µM	> 100	> 100 µM	> 100 µM	> 100 µM	> 100 µM	> 100 µM	> 100 µM	> 100 µM	> 100 µM	> 100 µM	> 100 µM	> 100 µM					
